Test results: PubChem BioAssay AID1963835 (Molecular Pharmacology Branch, DTP, NCI, 2024)

Test system: 699152-130-R-J1-PDC complex spheroid viability
Assay: Anticancer human tumor 699152-130-R-J1-PDC patient-derived pancreatic carcinoma cell line growth inhibition [POLQ]
Details: for IC50: curve of first compound; for viability, T/C: stronger effect = lower value
Summary of the method: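 PDC + HUVEC + MSC complex spheroids; POLQ inhibitors ± partner drugs; top conc. at/near clinical Cmax, else 10 microM (SN-38 1 microM), half-log dilutions; 37 degrees C, 5% CO2.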

[1] = second compound 0.0316 µM, first compound 0.0316 µM
[2] = second compound 0.0316 µM, first compound 0.1 µM
[3] = second compound 0.0316 µM, first compound 0.316 µM
[4] = second compound 0.0316 µM, first compound 1 µM
[5] = second compound 0.0316 µM, first compound 3.16 µM
[6] = second compound 0.0316 µM, first compound 10 µM
[7] = second compound 0.1 µM, first compound 0.0316 µM
[8] = second compound 0.1 µM, first compound 0.1 µM
[9] = second compound 0.1 µM, first compound 0.316 µM
[10] = second compound 0.1 µM, first compound 1 µM
[11] = second compound 0.1 µM, first compound 3.16 µM
[12] = second compound 0.1 µM, first compound 10 µM
[13] = second compound 0.316 µM, first compound 0.0316 µM
[14] = second compound 0.316 µM, first compound 0.1 µM
[15] = second compound 0.316 µM, first compound 0.316 µM
[16] = second compound 0.316 µM, first compound 1 µM
[17] = second compound 0.316 µM, first compound 3.16 µM
[18] = second compound 0.316 µM, first compound 10 µM
[19] = second compound 1 µM, first compound 0.0316 µM
[20] = second compound 1 µM, first compound 0.1 µM
[21] = second compound 1 µM, first compound 0.316 µM
[22] = second compound 1 µM, first compound 1 µM
[23] = second compound 1 µM, first compound 3.16 µM
[24] = second compound 1 µM, first compound 10 µM
[25] = second compound 3.16 µM, first compound 0.0316 µM
[26] = second compound 3.16 µM, first compound 0.1 µM
[27] = second compound 3.16 µM, first compound 0.316 µM
[28] = second compound 3.16 µM, first compound 1 µM
[29] = second compound 3.16 µM, first compound 3.16 µM
[30] = second compound 3.16 µM, first compound 10 µM
[31] = second compound 10 µM, first compound 0.0316 µM
[32] = second compound 10 µM, first compound 0.1 µM
[33] = second compound 10 µM, first compound 0.316 µM
[34] = second compound 10 µM, first compound 1 µM
[35] = second compound 10 µM, first compound 3.16 µM
[36] = second compound 10 µM, first compound 10 µM
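Also: spheroids exposed to agents for 7 days before viability reading.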
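For viability, T/C in this document: percent of DMSO vehicle control viability so 100% = vehicle and 0% = no viable signal.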

Compound `COc1cc2cc(C(=O)CCC(=O)O)sc2cc1OC` + Cc1cccc(N(C)C(=O)C2C(O)CCN2c2nc(C)cc(C(F)(F)F)c2C#N)c1 has an IC50 (second compound 0.0316 µM) greater than 10 µM, an IC50 (second compound 0.1 µM) greater than 10 µM and an IC50 (second compound 0.316 µM) greater than 10 µM. For the same compound, the IC50 (second compound 1 µM) was greater than 10 µM, the IC50 (second compound 3.16 µM) was greater than 10 µM and the IC50 (second compound 10 µM) was greater than 10 µM. The viability, T/C [1] was 99.4%, the viability, T/C [2] was 91.8% and the viability, T/C [3] was 92.6%. It also gave a viability, T/C [4] of 98.7%, a viability, T/C [5] of 110% and a viability, T/C [6] of 95.3%. For the same compound, the viability, T/C [7] was 113%, the viability, T/C [8] was 108% and the viability, T/C [9] was 106%. For the same compound, the viability, T/C [10] was 90.3%, the viability, T/C [11] was 121% and the viability, T/C [12] was 93.2%. The viability, T/C [13] was 93%, the viability, T/C [14] was 105% and the viability, T/C [15] was 92.5%. It also gave a viability, T/C [16] of 102%, a viability, T/C [17] of 114% and a viability, T/C [18] of 94.9%. The viability, T/C [19] was 94.8%, the viability, T/C [20] was 99.4% and the viability, T/C [21] was 92.1%. For the same compound, the viability, T/C [22] was 106%, the viability, T/C [23] was 107% and the viability, T/C [24] was 107%. The viability, T/C [25] was 102%, the viability, T/C [26] was 97.8% and the viability, T/C [27] was 104%. It also gave a viability, T/C [28] of 105%, a viability, T/C [29] of 89.1% and a viability, T/C [30] of 93.3%. It also gave a viability, T/C [31] of 92.2%, a viability, T/C [32] of 102% and a viability, T/C [33] of 105%. It also gave a viability, T/C [34] of 96%, a viability, T/C [35] of 98.9% and a viability, T/C [36] of 103%.

Work on `CC(C)n1c(=O)n(C)c2cnc3cc(F)c(-c4ccc(OCCCN5CCCCC5)nc4)cc3c21` + Nc1ccc(C#CCN(C(=O)Cc2ncc(C(F)(F)F)cc2C(F)(F)F)c2ccc(F)cc2)nn1 yielded an IC50 (second compound 0.0316 µM) greater than 10 µM, an IC50 (second compound 0.1 µM) greater than 10 µM and an IC50 (second compound 0.316 µM) greater than 10 µM. The IC50 (second compound 1 µM) was greater than 10 µM, the IC50 (second compound 3.16 µM) was greater than 10 µM and the IC50 (second compound 10 µM) was greater than 10 µM. The viability, T/C [1] was 88.5%, the viability, T/C [2] was 111% and the viability, T/C [3] was 93.5%. For the same compound, the viability, T/C [4] was 97.9%, the viability, T/C [5] was 104% and the viability, T/C [6] was 96.8%. For the same compound, the viability, T/C [7] was 118%, the viability, T/C [8] was 103% and the viability, T/C [9] was 106%. The viability, T/C [10] was 108%, the viability, T/C [11] was 101% and the viability, T/C [12] was 86.9%. For the same compound, the viability, T/C [13] was 98.1%, the viability, T/C [14] was 105% and the viability, T/C [15] was 103%. For the same compound, the viability, T/C [16] was 116%, the viability, T/C [17] was 104% and the viability, T/C [18] was 89.5%. The viability, T/C [19] was 109%, the viability, T/C [20] was 93.6% and the viability, T/C [21] was 103%. It also gave a viability, T/C [22] of 111%, a viability, T/C [23] of 106% and a viability, T/C [24] of 89%. It also gave a viability, T/C [25] of 116%, a viability, T/C [26] of 98.2% and a viability, T/C [27] of 112%. For the same compound, the viability, T/C [28] was 118%, the viability, T/C [29] was 108% and the viability, T/C [30] was 86.2%. It also gave a viability, T/C [31] of 116%, a viability, T/C [32] of 119% and a viability, T/C [33] of 121%. It also gave a viability, T/C [34] of 113%, a viability, T/C [35] of 112% and a viability, T/C [36] of 91.9%.
